According to PMC10958880, “Pocket Crafter: a 3D generative modeling based workflow for the rapid generation of hit molecules in drug discovery” (Journal of Cheminformatics, 2024):
One block for each compound: values may come before it.

What was measured:
Type in all cases: binding
[1] = biological target: T1, WDR5 (Homo sapiens, UniProt P61964); experiment: DSF (Tm shift -4.[…] °C) plus WDR5-MYC peptide HTRF displacement with counter assay; parameters: full-length WDR5 (DSF); N-His, 1–334 (HTRF)
[2] = biological target: T1, WDR5; experiment: DSF (Tm shift -1.[…] °C) plus WDR5-MYC peptide HTRF displacement with counter assay; parameters: full-length WDR5 (DSF); N-His, 1–334 (HTRF)
[3] = biological target: T1, WDR5; experiment: WDR5-MYC peptide HTRF dose response, inactive in counter assay; parameters: N-His, 1–334; with MYC MbIIIb peptide (256–268 a.a.)

- IC50 [1]: 35.6 µM
SMILES: O=C(c1cc2ccccc2[nH]1)N1CCn2ncc(N3C[C@@H](CO)OC3=O)c2C1 [PC-1]

- IC50 [2]: 27.5 µM
SMILES: C[C@H]1Cc2noc(N3CCCCC3=O)c2CN1C(=O)c1cc2ccccc2[nH]1 [PC-2]

- IC50 [3]: 28.5 µM
SMILES: CC1(C)CN(c2cnn3c2CN(C(=O)c2cc4c([nH]2)CCCC4)CC3)C(=O)O1 [PC-3]
